Reference: article PMC11591096, “Hit Identification and Functional Validation of Novel Dual Inhibitors of HDAC8 and Tubulin Identified by Combining Docking and Molecular Dynamics Simulations” (Antioxidants, 2024)

Biological target: T1, HDAC8 (Homo sapiens, UniProt Q9BY41)
T1 construct: purchased enzyme (VinciBiochem)
T1 sequence (Q9BY41 1-377): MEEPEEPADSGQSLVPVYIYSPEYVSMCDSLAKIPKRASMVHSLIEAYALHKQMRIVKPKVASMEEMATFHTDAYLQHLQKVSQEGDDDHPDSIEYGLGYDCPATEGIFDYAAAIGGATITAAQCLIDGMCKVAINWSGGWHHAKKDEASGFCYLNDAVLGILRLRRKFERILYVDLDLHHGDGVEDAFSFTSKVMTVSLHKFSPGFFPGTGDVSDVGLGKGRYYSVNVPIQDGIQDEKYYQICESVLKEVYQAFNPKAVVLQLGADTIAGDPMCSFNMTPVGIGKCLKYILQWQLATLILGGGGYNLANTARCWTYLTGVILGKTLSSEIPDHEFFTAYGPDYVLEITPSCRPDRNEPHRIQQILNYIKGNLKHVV
Assay: HDAC-Glo I/II bioluminogenic deacetylase assay
Type: biochemical
Details: read-out: HDAC8IC50 (μM) ^a
Description: HDAC-Glo I/II bioluminogenic deacetylase assay on HDAC8

IC50: > 300 µM
Compound: Cc1cc(OCC(=O)N2CCC(C(N)=O)CC2)c2c(C)c(Cc3ccccc3)c(=O)oc2c1 [CNP0217284]
